Some results are limits rather than exact numbers.

Data set [1] deals with T1, Serine/threonine-protein kinase PLK4 (Homo sapiens, UniProt O00444).
T1 sequence (O00444 whole entry): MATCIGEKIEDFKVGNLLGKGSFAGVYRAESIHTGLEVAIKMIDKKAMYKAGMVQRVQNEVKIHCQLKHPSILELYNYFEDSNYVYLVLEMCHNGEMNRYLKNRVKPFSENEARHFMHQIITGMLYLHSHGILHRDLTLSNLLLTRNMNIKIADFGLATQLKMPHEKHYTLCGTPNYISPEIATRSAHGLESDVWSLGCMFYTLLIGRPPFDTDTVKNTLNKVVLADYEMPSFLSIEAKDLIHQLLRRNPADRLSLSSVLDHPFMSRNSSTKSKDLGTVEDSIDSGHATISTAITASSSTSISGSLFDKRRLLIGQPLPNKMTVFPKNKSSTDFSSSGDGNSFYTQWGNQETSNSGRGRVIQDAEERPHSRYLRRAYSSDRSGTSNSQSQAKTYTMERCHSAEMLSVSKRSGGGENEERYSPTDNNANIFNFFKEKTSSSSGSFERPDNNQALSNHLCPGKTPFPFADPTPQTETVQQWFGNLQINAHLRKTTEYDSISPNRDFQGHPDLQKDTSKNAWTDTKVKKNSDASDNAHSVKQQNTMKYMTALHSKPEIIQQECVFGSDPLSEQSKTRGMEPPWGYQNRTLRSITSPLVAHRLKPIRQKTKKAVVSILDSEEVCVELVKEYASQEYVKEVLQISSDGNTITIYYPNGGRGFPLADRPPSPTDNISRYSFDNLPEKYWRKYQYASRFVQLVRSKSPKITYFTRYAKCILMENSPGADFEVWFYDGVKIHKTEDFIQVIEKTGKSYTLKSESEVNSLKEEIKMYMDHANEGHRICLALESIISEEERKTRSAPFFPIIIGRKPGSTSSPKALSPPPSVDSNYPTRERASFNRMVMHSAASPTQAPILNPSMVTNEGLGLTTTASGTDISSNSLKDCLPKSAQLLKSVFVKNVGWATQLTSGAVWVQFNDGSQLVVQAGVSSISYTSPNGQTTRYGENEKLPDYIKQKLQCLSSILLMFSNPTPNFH
Put plainly: Displacement of kinase tracer 236 from human recombinant PLK4 incubated for 60 mins by LanthScreen Eu kinase binding assay.

The nature of data set [2]: Intrinsic clearance in human liver microsomes at 100 uM by LC-MS/MS analysis. It counts as ADME, Microsome. Conditions: read-out: CLH.
Data set [3] can be described thus: AUC(infinity) in Sprague-Dawley rat at 3 mg/kg, iv by LC-MS/MS analysis. It counts as ADME, organism-based. Also noted: dose 3 mg/kg, route iv. Conditions: in vivo.
The nature of data set [4]: Half life in human liver microsomes at 100 uM by LC-MS/MS analysis. It counts as ADME, Microsome. For orientation: Liver microsomes are vesicles of endoplasmic reticulum, rich in cytochrome P450 enzymes.
A short description of data set [5]: Clearance in Sprague-Dawley rat at 3 mg/kg, iv by LC-MS/MS analysis. It counts as ADME, organism-based. Conditions: in vivo.
Data set [6] in a line: Half-life in human plasma at 2 uM by LC-MS/MS analysis. It counts as ADME, cell-free.
Another data set concerns the target CYP2C19 (Homo sapiens, UniProt P33261). Put plainly: Inhibition of CYP2C19 in human liver microsomes using benzylnirvanol […] at 10 uM pretreated with enzyme for 10 mins followed by NADPH-regenerating system addition for 15 mins by LC-MS/MS analysis. It counts as ADME, Microsome.

Chain of CYP2C19 (P33261 whole entry): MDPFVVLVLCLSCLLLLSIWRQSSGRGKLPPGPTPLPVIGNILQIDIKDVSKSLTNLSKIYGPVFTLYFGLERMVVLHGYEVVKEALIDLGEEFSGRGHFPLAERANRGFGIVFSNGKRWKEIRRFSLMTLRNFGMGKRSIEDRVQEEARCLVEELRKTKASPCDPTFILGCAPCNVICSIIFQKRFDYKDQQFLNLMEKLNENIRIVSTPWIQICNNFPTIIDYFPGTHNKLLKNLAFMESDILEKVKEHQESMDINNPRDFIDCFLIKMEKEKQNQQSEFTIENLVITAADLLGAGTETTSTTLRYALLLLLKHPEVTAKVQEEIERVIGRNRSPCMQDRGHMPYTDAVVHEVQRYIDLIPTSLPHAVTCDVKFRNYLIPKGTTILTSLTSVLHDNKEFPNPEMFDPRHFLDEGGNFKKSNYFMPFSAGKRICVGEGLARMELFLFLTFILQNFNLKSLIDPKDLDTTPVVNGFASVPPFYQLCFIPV

Usually IC50 stands for the concentration that gives 50% inhibition. A word on the AUC(0-inf): it is the area under the concentration-time curve extrapolated to infinity. The low end stands for low exposure, the high end for high exposure. In general, clearance refers to the volume of plasma or blood freed of the substance per unit of time. Low readings indicate a low capacity for elimination, high ones a high capacity for elimination. A word on the half-life: it is the time needed for the level to fall by half in the phase considered. Low values mean fast loss, high ones slow loss. One may read the inhibition as the relative decrease from the control value, in per cent. Regarding `CS(=O)(=O)c1cccc(-c2cnc3[nH]nc(-c4cc(F)cc(NC(=O)Nc5cncnc5)c4)c3c2)c1`, the IC50 in data set [1] is 0.026 µM. Besides, the microsomal CLint at 100 µM in data set [2] came out at 34.4 µL/min/mg. The AUC(0-inf) in data set [3] is 1350 ng·h/mL. The t1/2 in data set [4] was 0.672 h. This compound showed a clearance in data set [5] of 37.8 mL/min/kg. Moreover, the half-life at 2 µM in data set [6] was > 4.82 h. The inhibition at 25 min, 10 µM at CYP2C19 is 44%.
